Reference: publication PMC3545992, “Trisubstituted Pyrazolopyrimidines as Novel Angiogenesis Inhibitors” (PLoS ONE, 2013)

Key:
Cdk2 = tested on: Cdk2; design: method as in Jorda et al. [23]; settings: ref Jorda et al. [23]; cited from earlier work
Cdk5 = tested on: Cdk5; design: method as in Jorda et al. [23]; settings: ref Jorda et al. [23]; cited from earlier work
HMEC-1 cells = assay: Microscopy / propidium iodide staining for cell death at proliferation-assay cell density; assay type: cell-based; settings: 30 µM, 72 h
Method: A: HMEC-1 cells were seeded in the same density as for the proliferation assay and treated with the respective compound at 30 µM for 72 h to test whether reduced cell numbers in the proliferation assay are due to inhibition of proliferation or to excessive cell death. No increase of detached, obviously dead or propidium iodide positive cells was detected. B and C: Confluent layers of HUVECs were scratched and the cells were allowed to migrate for 16 h in the presence or absence of 10 µM of the compounds. B: The columns indicate the area re-covered by migrating cells (n = 3, mean ± SEM, * p<0.05, One Way ANOVA, Dunnett). C: Scratches at endpoint, representative images taken out of three experiments.
HMEC-1 were seeded into 96-well-plates (1,500 cells/well). After 24 h, the cells were stimulated with the indicated compounds. At the same time point, cells in a reference plate were stained with crystal violet, serving as initial cell number. After 72 hours of stimulation, cells were fixed and stained with crystal-violet solution for 10 minutes, washed with water, and air dried. Crystal violet was eluted with dissolving buffer and absorbance was measured at 550 nm (Tecan Sunrise Absorbance reader, TECAN, Crailsheim, Germany). […] Phase contrast and fluorescence images were obtained with an inverted Nikon microscope (Ti, Nikon, Düsseldorf, Germany) equipped with a 10x objective.

Aurora kinase A = target: T1, Aurora kinase A (Homo sapiens, UniProt O14965); assay: In vitro kinase profile (ProQinase); assay type: biochemical
T1 construct: purchased ProQinase (Freiburg, Germany)
T1 sequence (O14965 1-403): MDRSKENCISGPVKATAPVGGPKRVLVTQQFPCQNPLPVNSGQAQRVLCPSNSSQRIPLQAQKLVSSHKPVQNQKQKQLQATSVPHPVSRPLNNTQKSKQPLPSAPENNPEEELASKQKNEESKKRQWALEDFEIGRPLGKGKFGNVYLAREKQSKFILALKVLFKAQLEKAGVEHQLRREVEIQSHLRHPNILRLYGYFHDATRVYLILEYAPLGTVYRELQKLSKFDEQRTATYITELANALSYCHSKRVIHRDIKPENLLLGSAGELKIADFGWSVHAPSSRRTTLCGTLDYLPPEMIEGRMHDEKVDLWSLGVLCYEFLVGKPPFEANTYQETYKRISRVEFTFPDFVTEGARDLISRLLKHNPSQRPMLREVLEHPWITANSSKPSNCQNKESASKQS
Method: (§1) Therefore, it was of interest to see which kinases, especially which Cdks, are inhibited by those compounds. The kinase profiling was performed by ProQinase (Freiburg, Germany) for LGR 1406 and 1407. For LGR 1404 kinase profiling has recently been published previously. LGR 1406 and 1407 were tested for their IC50 in a panel of 24 kinases, including the Cdk1, Cdk2, Cdk4, Cdk5, Cdk6, Cdk7 and Cdk9. The other kinases tested were PTK6, EGFR, FAK, FGFR1 and FGFR2, NLK, PAK4, VEGFR1 and VEGFR2, MEK1, ROCK1, RAF1, ALK, RSK3, AURKA, and AMPKα1.

Cdk2/CycE = target: T2, Cdk2/CycE (Homo sapiens, UniProt P24941); assay: In vitro kinase profile (ProQinase); assay type: biochemical
T2 construct: purchased ProQinase (Freiburg, Germany)
Method: as §1

Cdk4/CycD1 = target: T3, Cdk4/CycD1 (Homo sapiens, UniProt P11802); assay: In vitro kinase profile (ProQinase); assay type: biochemical
T3 construct: purchased ProQinase (Freiburg, Germany)
T3 sequence (P11802 whole entry): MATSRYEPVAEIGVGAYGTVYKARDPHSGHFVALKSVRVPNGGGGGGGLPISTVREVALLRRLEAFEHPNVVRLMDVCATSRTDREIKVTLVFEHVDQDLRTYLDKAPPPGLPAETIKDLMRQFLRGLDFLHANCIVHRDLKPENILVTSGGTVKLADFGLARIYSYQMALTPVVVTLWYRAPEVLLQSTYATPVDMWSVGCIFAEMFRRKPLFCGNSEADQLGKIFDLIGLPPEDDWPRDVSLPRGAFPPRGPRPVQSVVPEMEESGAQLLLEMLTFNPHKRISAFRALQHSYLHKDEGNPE
T3 sequence (P24385 whole entry partner): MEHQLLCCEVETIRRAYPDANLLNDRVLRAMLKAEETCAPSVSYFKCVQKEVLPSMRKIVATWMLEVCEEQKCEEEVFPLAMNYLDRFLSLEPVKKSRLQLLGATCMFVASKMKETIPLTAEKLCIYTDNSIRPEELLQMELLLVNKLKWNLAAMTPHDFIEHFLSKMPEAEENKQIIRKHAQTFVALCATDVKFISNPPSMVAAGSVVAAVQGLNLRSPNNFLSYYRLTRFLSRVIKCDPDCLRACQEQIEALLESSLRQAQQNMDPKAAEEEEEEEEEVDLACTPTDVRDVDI
Method: as §1

Cdk6/CycD1 = target: T4, Cdk6/CycD1 (Homo sapiens, UniProt Q00534); assay: In vitro kinase profile (ProQinase); assay type: biochemical
T4 construct: purchased ProQinase (Freiburg, Germany)
T4 sequence (Q00534 whole entry): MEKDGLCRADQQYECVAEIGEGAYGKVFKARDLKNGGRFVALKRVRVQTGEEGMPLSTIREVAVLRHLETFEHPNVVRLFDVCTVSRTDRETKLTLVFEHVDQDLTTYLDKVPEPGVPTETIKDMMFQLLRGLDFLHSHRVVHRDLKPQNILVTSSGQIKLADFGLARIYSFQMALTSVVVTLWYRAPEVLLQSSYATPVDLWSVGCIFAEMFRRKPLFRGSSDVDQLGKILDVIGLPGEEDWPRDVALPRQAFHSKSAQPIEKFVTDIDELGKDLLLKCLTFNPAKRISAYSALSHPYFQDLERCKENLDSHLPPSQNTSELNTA
T4 sequence (P24385 whole entry partner): as the sequence (P24385 whole entry partner) above
Method: as §1

Cdk9/CycT = target: T5, Cdk9/CycT (Homo sapiens, UniProt P50750); assay: In vitro kinase profile (ProQinase); assay type: biochemical
T5 construct: purchased ProQinase (Freiburg, Germany)
T5 sequence (P50750 whole entry): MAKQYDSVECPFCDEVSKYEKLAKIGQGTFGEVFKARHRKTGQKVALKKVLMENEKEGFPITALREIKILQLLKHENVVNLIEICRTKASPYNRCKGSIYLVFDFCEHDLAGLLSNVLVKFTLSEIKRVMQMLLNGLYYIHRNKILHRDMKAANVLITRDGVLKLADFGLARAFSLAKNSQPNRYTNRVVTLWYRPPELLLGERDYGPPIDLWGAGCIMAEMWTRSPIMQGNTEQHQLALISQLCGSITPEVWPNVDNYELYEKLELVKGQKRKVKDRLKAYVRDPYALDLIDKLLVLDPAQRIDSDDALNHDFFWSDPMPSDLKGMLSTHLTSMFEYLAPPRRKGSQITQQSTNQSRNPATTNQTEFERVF
T5 sequence (O60563 whole entry partner): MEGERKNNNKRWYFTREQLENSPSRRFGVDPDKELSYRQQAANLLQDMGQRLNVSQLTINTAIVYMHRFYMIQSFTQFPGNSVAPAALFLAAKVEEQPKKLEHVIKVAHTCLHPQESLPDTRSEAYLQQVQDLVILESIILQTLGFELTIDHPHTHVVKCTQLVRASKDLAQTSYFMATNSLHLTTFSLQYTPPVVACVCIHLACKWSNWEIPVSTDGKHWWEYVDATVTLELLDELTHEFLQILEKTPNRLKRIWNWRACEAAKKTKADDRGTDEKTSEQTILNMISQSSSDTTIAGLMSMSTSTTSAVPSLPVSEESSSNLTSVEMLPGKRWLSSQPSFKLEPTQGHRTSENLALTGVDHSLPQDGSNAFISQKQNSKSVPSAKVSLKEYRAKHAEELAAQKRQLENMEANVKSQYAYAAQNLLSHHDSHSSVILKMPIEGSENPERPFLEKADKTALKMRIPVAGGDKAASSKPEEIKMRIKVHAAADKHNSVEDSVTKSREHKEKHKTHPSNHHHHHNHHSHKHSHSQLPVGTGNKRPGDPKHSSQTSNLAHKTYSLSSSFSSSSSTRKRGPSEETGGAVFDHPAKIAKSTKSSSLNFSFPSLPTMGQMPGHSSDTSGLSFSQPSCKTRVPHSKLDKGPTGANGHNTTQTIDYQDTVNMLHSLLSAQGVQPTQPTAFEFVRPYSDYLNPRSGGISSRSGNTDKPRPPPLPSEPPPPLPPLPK
Method: as §1

FAK = target: T6, FAK (Homo sapiens, UniProt Q05397); assay: In vitro kinase profile (ProQinase); assay type: biochemical
T6 construct: purchased ProQinase (Freiburg, Germany)
T6 sequence (Q05397 whole entry): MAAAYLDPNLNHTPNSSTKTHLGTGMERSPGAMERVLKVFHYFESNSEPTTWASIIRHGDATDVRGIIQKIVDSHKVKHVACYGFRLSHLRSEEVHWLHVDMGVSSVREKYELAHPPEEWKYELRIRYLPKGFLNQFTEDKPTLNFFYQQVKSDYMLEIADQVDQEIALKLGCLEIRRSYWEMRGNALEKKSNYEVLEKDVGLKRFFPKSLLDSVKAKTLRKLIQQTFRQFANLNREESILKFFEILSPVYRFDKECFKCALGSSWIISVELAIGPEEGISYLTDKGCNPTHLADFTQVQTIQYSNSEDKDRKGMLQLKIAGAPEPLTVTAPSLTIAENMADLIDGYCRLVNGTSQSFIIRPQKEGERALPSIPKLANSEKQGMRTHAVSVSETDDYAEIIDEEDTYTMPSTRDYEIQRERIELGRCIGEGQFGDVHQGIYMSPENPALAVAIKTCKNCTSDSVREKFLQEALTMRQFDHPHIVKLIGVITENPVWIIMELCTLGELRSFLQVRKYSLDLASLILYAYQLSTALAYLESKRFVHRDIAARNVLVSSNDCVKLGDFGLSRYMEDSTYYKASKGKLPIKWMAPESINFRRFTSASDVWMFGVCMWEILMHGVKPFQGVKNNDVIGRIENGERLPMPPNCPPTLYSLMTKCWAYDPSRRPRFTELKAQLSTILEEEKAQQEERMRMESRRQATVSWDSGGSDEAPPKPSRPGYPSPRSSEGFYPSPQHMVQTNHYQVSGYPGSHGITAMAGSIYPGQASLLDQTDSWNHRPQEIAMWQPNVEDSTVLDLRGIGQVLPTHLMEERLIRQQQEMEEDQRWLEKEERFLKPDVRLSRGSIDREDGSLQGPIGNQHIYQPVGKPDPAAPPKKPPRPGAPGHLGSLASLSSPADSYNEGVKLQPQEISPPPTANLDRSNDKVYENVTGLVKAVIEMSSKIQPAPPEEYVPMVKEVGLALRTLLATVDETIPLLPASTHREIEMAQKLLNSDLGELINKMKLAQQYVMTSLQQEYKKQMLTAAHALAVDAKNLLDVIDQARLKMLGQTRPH
Method: as §1

PAK4 = target: T7, PAK4 (Homo sapiens, UniProt O96013); assay: In vitro kinase profile (ProQinase); assay type: biochemical
T7 construct: purchased ProQinase (Freiburg, Germany)
T7 sequence (O96013 whole entry): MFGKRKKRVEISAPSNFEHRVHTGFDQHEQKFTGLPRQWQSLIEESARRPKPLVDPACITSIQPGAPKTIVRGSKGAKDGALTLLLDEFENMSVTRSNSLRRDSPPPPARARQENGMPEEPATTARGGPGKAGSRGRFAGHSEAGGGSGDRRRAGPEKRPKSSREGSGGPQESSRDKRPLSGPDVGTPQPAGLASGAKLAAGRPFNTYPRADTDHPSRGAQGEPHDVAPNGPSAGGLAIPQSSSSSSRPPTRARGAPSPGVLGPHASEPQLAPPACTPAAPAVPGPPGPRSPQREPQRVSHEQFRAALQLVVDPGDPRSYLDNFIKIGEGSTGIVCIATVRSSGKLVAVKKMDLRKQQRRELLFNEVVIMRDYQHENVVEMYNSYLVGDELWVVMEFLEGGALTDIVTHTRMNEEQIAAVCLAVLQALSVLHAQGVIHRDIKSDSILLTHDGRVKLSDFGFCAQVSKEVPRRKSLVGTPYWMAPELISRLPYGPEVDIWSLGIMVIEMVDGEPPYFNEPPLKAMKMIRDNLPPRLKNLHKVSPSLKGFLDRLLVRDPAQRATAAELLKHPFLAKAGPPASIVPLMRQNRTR
Method: as §1

RSK3 = target: T8, RSK3 (Homo sapiens, UniProt Q15349); assay: In vitro kinase profile (ProQinase); assay type: biochemical
T8 construct: purchased ProQinase (Freiburg, Germany)
T8 sequence (Q15349 whole entry): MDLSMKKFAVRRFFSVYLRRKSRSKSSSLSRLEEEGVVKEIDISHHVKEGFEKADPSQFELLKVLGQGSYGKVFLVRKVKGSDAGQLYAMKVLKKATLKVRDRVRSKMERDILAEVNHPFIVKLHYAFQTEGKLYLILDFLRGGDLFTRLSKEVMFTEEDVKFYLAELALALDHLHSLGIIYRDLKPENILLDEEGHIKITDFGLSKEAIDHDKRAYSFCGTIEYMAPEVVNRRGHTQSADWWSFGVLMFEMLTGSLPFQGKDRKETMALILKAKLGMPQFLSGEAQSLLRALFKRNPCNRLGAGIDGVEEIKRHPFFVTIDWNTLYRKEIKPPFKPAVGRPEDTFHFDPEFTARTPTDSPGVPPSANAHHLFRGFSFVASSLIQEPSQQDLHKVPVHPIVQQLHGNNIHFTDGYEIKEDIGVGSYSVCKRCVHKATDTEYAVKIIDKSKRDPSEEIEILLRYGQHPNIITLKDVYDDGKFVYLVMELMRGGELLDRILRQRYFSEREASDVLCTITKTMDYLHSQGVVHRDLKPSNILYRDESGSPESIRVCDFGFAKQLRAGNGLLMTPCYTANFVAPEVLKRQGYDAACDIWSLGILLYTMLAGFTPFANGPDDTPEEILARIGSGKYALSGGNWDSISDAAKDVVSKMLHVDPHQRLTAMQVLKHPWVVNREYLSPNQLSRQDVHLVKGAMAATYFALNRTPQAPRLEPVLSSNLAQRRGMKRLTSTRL
Method: as §1

Structure (SMILES)	IC50 (Cdk2) [µM]	IC50 (Cdk5) [µM]	morphologically altered, dead or detached cells, loss of membrane integrity (propidium iodide) (HMEC-1 cells)	IC50 (Aurora kinase A) [µM]	IC50 (Cdk2/CycE) [µM]	IC50 (Cdk4/CycD1) [µM]	IC50 (Cdk6/CycD1) [µM]	IC50 (Cdk9/CycT) [µM]	IC50 (FAK) [µM]	IC50 (PAK4) [µM]	IC50 (RSK3) [µM]
CC[C@H](CO)Nc1nc(NCc2ccccc2)c2n[nH]c(C(C)C)c2n1 [LGR 1404, 7-Benzylamino-5(R)-[(1-hydroxymethyl)propylamino]-3-isopropyl-1(2)H-pyrazolo[4,3-d]pyrimidine]	0.22	0.94	–	–	–	–	–	–	–	–	–
CC(C)c1n[nH]c2c(NCc3ccccc3)nc(NC3CCCCC3N)nc12 (stereo not shown) [LGR 1406, 5-[(2-E/Z-aminocyclohexyl)amino]-7-benzylamino-3-isopropyl-1(2)H-pyrazolo[4,3-d]pyrimidine]	–	–	no increase of morphologically altered, dead or detached cells, and no loss of membrane integrity	< 10	0.59	15	> 100	1	< 10	< 10	< 10
CC(C)c1n[nH]c2c(NCc3ccccc3)nc(NC3CCC(N)CC3)nc12 (stereo not shown) [LGR 1407, 5-[(4-E-aminocyclohexyl)amino]-7-benzylamino-3-isopropyl-1(2)H-pyrazolo[4,3-d]pyrimidine]	–	–	–	≤ 10	0.99	66	91	1.9	–	–	–
